Reference: patent US4481198A, “Vitamin D metabolism inhibitor” (Wisconsin Alumni Research Foundation, priority 1984, dated 1984)
Where “and” joins values, the source holds several entries; their conditions need not be identical. Identical values can stand only once. Entries after “also recorded” stand apart in the source; their conditions may differ.

How the values were obtained:
[1] = test system: 25-hydroxylation of vitamin D3; details: high doses required; cited from earlier work
[2] = test system: enzymatic 25-hydroxylation of vitamin D3 (microsomal enzyme system from rat liver); assay: in vitro 25-hydroxylation of vitamin D3 in rat liver microsomal enzyme system; format: biochemical
Experimental: Male rats, obtained as weanlings (Holtzman, Madison, WI) were maintained on a vitamin D-deficient 0.5% calcium and 0.3% phosphorus diet for 4-6 weeks prior to use for in vitro 25-hydroxylation assays. Animals were fasted 18 h to deplete glycogen stores prior to study.
The microsomes were prepared by the method of Madhok and DeLuca (Biochem. J. 184, 491 (1979)). Livers were homogenized in 3 vol of 0.25M sucrose using a Potter-Elvehjem homogenizer fitted with a Teflon pestle. All centrifugation steps were done using a type 30 rotor and a Beckman L5-50 ultracentrifuge (Beckman Instruments, Lincolnwood, Ill.). […]
The work-up of the incubation mixture involved separation of the organic phase, and evaporation of solvent; the residue was then taken up in hexane:CHCl3 :MeOH (90:10:5) and applied to a Sephadex LH-20 column (Pharmacia, Piscataway, N.J.) (0.7×12 cm). […] The radioactivity in the 25-OH-D3region was used as a measure of enzyme activity and the UV peak (254 nm) as a measure of recovery. Radioactivity was determined on a Packard Instruments 3255 liquid scintillation counter using a toluene counting solution with 0.4% p-bis-[2-(5-phenyloxazolyl)]-benzene and 0.03% dimethyl-1,4-bis-[2-(5-phenyloxazolyl)]-benzene. […] The enzyme activity was expressed as picomole product (25-OH-D3) produced per milligram protein per 2 hours.

| SMILES | inhibition of 25-hydroxylation of vitamin D3 by known antagonists (in words) [1] | 25-OH-D3 Formation ([2]; [S] 200 nM vitamin D3, [I] 500 nM, inhibitor preincubated at 37° C. for 10 min, controls without inhibitor 0.46, 0.24, 0.36) | inhibition of 25-OH-D3 formation from vitamin D3 (in words) ([2]; rat liver microsomal system, 500 nM inhibitor, 2.5 times the substrate concentration) |
| --- | --- | --- | --- |
| CC(C)CCC[C@@H](C)[C@H]1CC[C@H]2/C(=C/C=C3/C[C@@H](O)CCC3CO)CCC[C@]12C (stereo partly drawn) [19-hydroxy-10,19-dihydro-vitamin D3] | partial inhibition |  |  |
| C=C1CC[C@H](O)C/C1=C/C=C1\CCC[C@]2(C)[C@@H]([C@H](C)CCC(=NO)C(C)C)CC[C@@H]12 [24-(NOH)D3, vitamin D3-24-oxime] |  | 0.09 pmol/2h/mg protein and 0.05 pmol/2h/mg protein | markedly suppressed; also recorded: dramatically suppresses |
